Results reported in US10696707B2, “Polyene macrolide derivative” (Shionogi & Co., Ltd., priority 2014, dated 2020).
In brackets after ≈: the same amount, converted by molar mass. Like-named read-outs stand apart in the source and are kept apart here.

How the values were obtained:
Assay type in all cases: cell-based
C. albicans ATCC90028 = experiment: Antifungal activity test, MIC by broth microdilution (CLSI M27-A3); conditions: C. albicans ATCC90028, 35° C., 24-48 hours
Description: (§1) The Minimum Inhibitory Concentration (MIC) values of the present compound against yeast and filamentous fungi were determined by broth microdilution assay according to the Clinical Laboratory Standards Institute (CLSI) guidelines outlined in documents M27-A3 and M38-A2. The medium used in the assay consisted of RPMI1640 (with glutamine, without bicarbonate) with 2% glucose and 0.165 mol/L morpholinepropanesulfonic acid (MOPS) with pH adjusted to 7.0 using 1 mol/L sodium hydroxide. The present compound was dissolved in dimethyl sulfoxide (DMSO). A series of two-fold dilutions were prepared in DMSO, and then 2 μL of the diluted compound was added to each well in 96-well sterile plates. Each inoculum was prepared by diluting a suspension of Candida spp. or a conidia suspension of Aspergillus spp. suspended in sterile saline solution, and then 200 μL was added to each well to a predetermined concentration using RPMI/MOPS (final concentration for each solution: approximately 1×10^3 cells/mL and approximately 1×10^4 CFU/mL). Plates of Candida spp. and Aspergillus spp. were incubated at 35° C. for 24-48 hours. The MIC was defined as the lowest concentration giving 100% inhibition compared to the growth control.

A. flavus ATCC204304 = experiment: Antifungal activity test, MIC by broth microdilution (CLSI M38-A2); conditions: A. flavus ATCC204304, 35° C., 24-48 hours
Description: as §1

A. fumigatus ATCC204305 = experiment: as above; conditions: A. fumigatus ATCC204305, 35° C., 24-48 hours
Description: as §1

[1] = broth microdilution, 100% inhibition
[2] = lowest concentration giving 100% inhibition

Structure (SMILES)	MIC (C. albicans ATCC90028; [1]) [µg/mL]	MIC (A. flavus ATCC204304; [1]) [µg/mL]	MIC (A. fumigatus ATCC204305; [1]) [µg/mL]	other results
CONC(=O)N[C@H]1[C@@H]2C[C@@H](O[C@@H]3O[C@H](C)[C@@H](O)[C@H](N)[C@@H]3O)/C=C/C=C/C=C/C=C/C=C/C=C/C=C/[C@H](C)[C@@H](O)[C@@H](C)[C@H](C)OC(=O)C[C@H](O)C[C@H](O)CC[C@@H](O)[C@H](O)C[C@H](O)C[C@](O)(C[C@@H]1O)O2 [I-59]	–	–	–	MIC (C. albicans ATCC90028; Candida albicans, broth microdilution, 100% inhibition, read-out: MIC): 0.25 µg/mL (≈ 0.258 µM); MIC (A. flavus ATCC204304; Aspergillus flavus, broth microdilution, 100% inhibition, read-out: MIC): 1 µg/mL (≈ 1.03 µM); MIC (A. fumigatus ATCC204305; Aspergillus fumigatus, broth microdilution, 100% inhibition, read-out: MIC): 1 µg/mL (≈ 1.03 µM)
C[C@@H]1[C@H](O)[C@@H](C)/C=C/C=C/C=C/C=C/C=C/C=C/C=C/[C@H](O[C@@H]2O[C@H](C)[C@@H](O)[C@H](N)[C@@H]2O)C[C@@H]2O[C@](O)(C[C@@H](O)C[C@@H](O)[C@H](O)CC[C@@H](O)C[C@@H](O)CC(=O)O[C@H]1C)C[C@H](O)[C@H]2NC(=O)NNC[C@H](O)CO [I-227]	0.5 (≈ 0.487 µM)	0.5 (≈ 0.487 µM)	1 (≈ 0.974 µM)	–
C[C@@H]1[C@H](O)[C@@H](C)/C=C/C=C/C=C/C=C/C=C/C=C/C=C/[C@H](O[C@@H]2O[C@H](C)[C@@H](O)[C@H](N)[C@@H]2O)C[C@@H]2O[C@](O)(C[C@@H](O)C[C@@H](O)[C@H](O)CC[C@@H](O)C[C@@H](O)CC(=O)O[C@H]1C)C[C@H](O)[C@H]2NC(=O)NC[C@H](N)CO [I-162]	0.25 (≈ 0.247 µM)	1 (≈ 0.989 µM)	1 (≈ 0.989 µM)	–
C[C@@H]1[C@H](O)[C@@H](C)/C=C/C=C/C=C/C=C/C=C/C=C/C=C/[C@H](O[C@@H]2O[C@H](C)[C@@H](O)[C@H](NC(=N)N)[C@@H]2O)C[C@@H]2O[C@](O)(C[C@@H](O)C[C@@H](O)[C@H](O)CC[C@@H](O)C[C@@H](O)CC(=O)O[C@H]1C)C[C@H](O)[C@H]2NC(=O)NCC(N)=O [I-346]	–	–	–	MIC (C. albicans ATCC90028; [2]): 0.5 µg/mL (≈ 0.482 µM); MIC (A. flavus ATCC204304; [2]): 0.5 µg/mL (≈ 0.482 µM); MIC (A. fumigatus ATCC204305; [2]): 1 µg/mL (≈ 0.964 µM)
CC1C=CC=CC=CC=CC=CC=CC=CC(OC2OC(C)C(O)C(N)C2O)CC2OC(O)(CC(O)CC(O)C(O)CCC(O)CC(O)CC(=O)OC(C)C(C)C1O)CC(O)C2NC(=O)NCC(N)CCO (stereo not drawn) [I-163]	0.25 (≈ 0.244 µM)	1 (≈ 0.975 µM)	1 (≈ 0.975 µM)	–
C[C@@H]1[C@H](O)[C@@H](C)/C=C/C=C/C=C/C=C/C=C/C=C/C=C/[C@H](O[C@@H]2O[C@H](C)[C@@H](O)[C@H](NC(=N)N)[C@@H]2O)C[C@@H]2O[C@](O)(C[C@@H](O)C[C@@H](O)[C@H](O)CC[C@@H](O)C[C@@H](O)CC(=O)O[C@H]1C)C[C@H](O)[C@H]2NC(=O)NNC(N)=O [I-330]	–	–	–	MIC (C. albicans ATCC90028; [2]): 0.25 µg/mL (≈ 0.241 µM); MIC (A. flavus ATCC204304; [2]): 1 µg/mL (≈ 0.963 µM); MIC (A. fumigatus ATCC204305; [2]): 1 µg/mL (≈ 0.963 µM)

Second part, led by results:

MIC (C. albicans ATCC90028; [1]) [µg/mL]	MIC (A. flavus ATCC204304; [1]) [µg/mL]	MIC (A. fumigatus ATCC204305; [1]) [µg/mL]	Structure (SMILES)	other results
0.25 (≈ 0.238 µM)	1 (≈ 0.951 µM)	1 (≈ 0.951 µM)	C[C@@H]1[C@H](O)[C@@H](C)/C=C/C=C/C=C/C=C/C=C/C=C/C=C/[C@H](O[C@@H]2O[C@H](C)[C@@H](O)[C@H](N)[C@@H]2O)C[C@@H]2O[C@](O)(C[C@@H](O)C[C@@H](O)[C@H](O)CC[C@@H](O)C[C@@H](O)CC(=O)O[C@H]1C)C[C@H](O)[C@H]2NC(=O)NCC1CN(CCO)C1 [I-158]	–
0.5 (≈ 0.501 µM)	0.5 (≈ 0.501 µM)	0.5 (≈ 0.501 µM)	C[C@@H]1[C@H](O)[C@@H](C)/C=C/C=C/C=C/C=C/C=C/C=C/C=C/[C@H](O[C@@H]2O[C@H](C)[C@@H](O)[C@H](N)[C@@H]2O)C[C@@H]2O[C@](O)(C[C@@H](O)C[C@@H](O)[C@H](O)CC[C@@H](O)C[C@@H](O)CC(=O)O[C@H]1C)C[C@H](O)[C@H]2NC(=O)N(O)CCO [I-274]	–
0.25 (≈ 0.245 µM)	0.5 (≈ 0.49 µM)	0.5 (≈ 0.49 µM)	C[C@@H]1[C@H](O)[C@@H](C)/C=C/C=C/C=C/C=C/C=C/C=C/C=C/[C@H](O[C@@H]2O[C@H](C)[C@@H](O)[C@H](N)[C@@H]2O)C[C@@H]2O[C@](O)(C[C@@H](O)C[C@@H](O)[C@H](O)CC[C@@H](O)C[C@@H](O)CC(=O)O[C@H]1C)C[C@H](O)[C@H]2NC(=O)N1CC(N(C)C)C1 [I-189]	–
0.5 (≈ 0.468 µM)	0.5 (≈ 0.468 µM)	1 (≈ 0.935 µM)	C[C@@H]1[C@H](O)[C@@H](C)/C=C/C=C/C=C/C=C/C=C/C=C/C=C/[C@H](O[C@@H]2O[C@H](C)[C@@H](O)[C@H](N)[C@@H]2O)C[C@@H]2O[C@](O)(C[C@@H](O)C[C@@H](O)[C@H](O)CC[C@@H](O)C[C@@H](O)CC(=O)O[C@H]1C)C[C@H](O)[C@H]2NC(=O)NCC(=O)NC(CO)CO [I-155]	–
